From US9289398B2, “Methods for the production of functional protein from DNA having a nonsense mutation and the treatment of disorders associated therewith” (PTC Therapeutics, Inc., priority 2006, dated 2016)
Where two headings read alike, the source gives them in different places.

Tests used:
Type in all cases: in vivo, human
[1] = Patient-reported changes in cystic fibrosis symptoms, CF Phase 2 interim analysis; conditions: of 15 CF patients in interim analysis
Excerpt: In addition, although changes in patient's symptoms were not formally measured through the use of a quality-of-life questionnaire, trial investigators were requested to ask about changes in patients' cystic fibrosis symptoms. In the 15 patients included in the interim analysis, 6 reported general improvements in well being, 6 reported decrease in cough and 10 reported decreased mucus thickness and easier clearing of mucus.

[2] = Safety, tolerability and compliance, DMD Phase 2 interim (6 patients)
Experimental: 3-[5-(2-Fluoro-phenyl)-[1,2,4]oxadiazol-3-yl]-benzoic acid is provided in a formulation described herein. Treatment is administered over 28 days for each treatment cohort. An initial cohort of patients are treated daily for 28 days with 3-[5-(2-fluoro-phenyl)-[1,2,4]oxadiazol-3-yl]-benzoic acid at a given dose level (e.g., 4-, 4-, and 8-mg/kg) TID. If the initial patients tolerate the drug, then a second cohort of patients receives 3-[5-(2-fluoro-phenyl)-[1,2,4]oxadiazol-3-yl]-benzoic acid at a higher dose level (e.g., 10-, 10-, and 20-mg/kg) TID. Thus, each patient receives a total of 84 doses of 3-[5-(2-fluoro-phenyl)-[1,2,4]oxadiazol-3-yl]-benzoic acid. After the end of 28 days of treatment, each patient is followed for an additional 28 days without treatment.
Six patients were administered 3-[5-(2-fluoro-phenyl)-[1,2,4]oxadiazol-3-yl]-benzoic acid TID in a regimen consisting of 4 mg/kg with breakfast, 4 mg/kg with lunch, and 8 mg/kg with supper, for a total daily dose of 16 mg/kg. All patients were ambulatory, but had characteristic signs and symptoms of DMD, including some degree of muscle dysfunction and elevated serum CK concentrations. […] These adverse events included diarrhea in 1 patient; abdominal pain in 1 patient; and flatulence in 2 patients. […] Treatment compliance was good, with patients taking >95% of the intended total drug treatment for 28 days at the lower dose level.

[3] = Body weight, CF Phase 2 study
Excerpt: (§1) 3-[5-(2-Fluoro-phenyl)-[1,2,4]oxadiazol-3-yl]-benzoic acid was provided in a formulation described herein.
(§2) Statistically significant results and positive trends for secondary endpoints were also observed. In particular, although the trials were not been powered to detect statistical significant changes in secondary endpoints, statistically significant improvements from study entry to the end of the higher-dose treatment cycle in the patients' mean FEV1, FVC and weight were observed.

[4] = Pulmonary function tests (FEV1, FVC), CF Phase 2 study
Experimental: Pulmonary function tests, including FEV1, FVC, and MEF25-75, are measured using standard spirometry procedures. Assessments of pulmonary function (including MEF25-75, FVC, and, particularly, FEV1) have been acknowledged as definitive clinical endpoints in patients with CF (Food and Drug Administration, 62nd Anti-Infective Drugs Advisory Committee. Discussion of NDA for tobramycin solution for inhalation (Tobi®) for the management of cystic fibrosis patients. November, 1997; Tiddens, 2002, Pediatr. Pulmonol. 34(3): 228-31). […] Pulmonary function testing is simple to administer (even in patients as young as 7 years of age), and uses standardized equipment and techniques that are widely available. Interpretation is performed using well-established normative equations that account for patient age, height, and gender.
Clinical endpoints were evaluated using the procedures set forth above. TEPD measurements were made prior to treatment and on days 14 and 28 of Cycle 1 and Cycle 2. Nasal mucosal curettage was collected from each nostril of each patient prior to treatment and on days 14 and 28 of Cycle 1 and Cycle 2. Pulmonary tests, including FEV1, FVC and MEF25-75, were measured prior to treatment, on day −1 of Cycle 2, on day 13 or 14 of Cycle 1 and day 13 or 14 of Cycle 2 in the study being conducted in Israel and the same parameters were measured prior to treatment and on day 13 or 14 of Cycle 2 in the study being conducted in the United States.
as §2

[5] = Pharmacokinetics, CF Phase 2 preliminary analysis; conditions: for Cmax / AUC(0-t): both sexes, human, in vivo, oral; for AUC(0-t): read-out: AUC0-24
Excerpt: as §1
The 3-[5-(2-fluoro-phenyl)-[1,2,4]oxadiazol-3-yl]-benzoic acid interim PK parameters from these 15 patients are described in Table 17.

[6] = test system: serum CK; assay: Serum CK levels, DMD Phase 2; conditions: boys with nonsense-mutation-mediated DMD, 28 days
Experimental: Serum CK activity is assessed using a commercially available NADH-linked kinetic assay (Diagnostic Chemicals Ltd., Oxford, Conn.). Serum CK levels are measured prior to treatment, on day 1 (prior to first dose), day 7, day 14, day 21, and day 27 during the treatment period, and on day 42 and day 56 after treatment. Serum CK is increased in Duchenne muscular dystrophy and therefore is a readily measurable diagnostic marker for the disease and may serve as a potential biomarker for the pharmacological activity of the drug (Mendell et al., 1989, New Eng. J. Med. 320(24):1592-1597).
3-[5-(2-fluoro-phenyl)-[1,2,4]oxadiazol-3-yl]-benzoic acid was administered orally for 28 days at dose levels of 4, 4, 8 mg/kg (low dose); 10, 10, 20 mg/kg (mid dose); and 20, 20, 40 mg/kg (high dose) after breakfast, lunch, and dinner, respectively. 26 boys (ages: 5-13 years; stop codons: 15 UGA, 6 UAG, 5 UAA; baseline serum CK: 8,645-49,500 IU; steroid use: 19/26) completed 3-[5-(2-fluoro-phenyl)-[1,2,4]oxadiazol-3-yl]-benzoic acid at the low (n=6) or mid (n=20) dose levels. […] Compliance was >98% for both dose levels. Day 1 and Day 28 PK indicate stable plasma exposures over time; however, exposures were lower than in 3-[5-(2-fluoro-phenyl)-[1,2,4]oxadiazol-3-yl]-benzoic acid-treated healthy adult volunteers and cystic fibrosis patients. […]

[7] = 6 DMD patients, 4, 4, 8 mg/kg TID
[8] = of 6 DMD patients, 4, 4, 8 mg/kg TID
[9] = study entry to end of higher dose treatment, percentage of normal
[10] = 8 mg/kg, Cycle 1 lower dose 4, 4, 8 mg/kg, Day 1, N = 15, mean
[11] = 8 mg/kg, Cycle 1 lower dose 4, 4, 8 mg/kg, Day 14, N = 15, mean
[12] = 20 mg/kg, Cycle 2 higher dose 10, 10, 20 mg/kg, Day 1, N = 15, mean
[13] = 20 mg/kg, Cycle 2 higher dose 10, 10, 20 mg/kg, Day 14, N = 15, mean

O=C(O)c1cccc(-c2noc(-c3ccccc3F)n2)c1 [3-[5-(2-fluoro-phenyl)-[1,2,4]oxadiazol-3-yl]-benzoic acid]
Patients reporting decrease in cough [1]: 6
Patients reporting decreased mucus thickness and easier clearing of mucus [1]: 10
Patients reporting general improvements in well being [1]: 6
Discontinuation of treatment due to an adverse event ([2]; 6 DMD patients): No patient discontinued treatment
Physical examinations, vital sign measurements, electrocardiograms [2, 7]: no safety concerns
Serum liver enzymes, bilirubin, creatinine, blood urea nitrogen [2, 7]: No clinically significant elevations
Serious drug-related adverse events ([2]; 6 DMD patients, 4, 4, 8 mg/kg TID, 28 days): No serious drug-related adverse events
Severity of potentially drug-related adverse events ([2]; 6 DMD patients, 4, 4, 8 mg/kg TID, preliminary): mild
Abdominal pain, number of patients [2, 8]: 1
Diarrhea, number of patients [2, 8]: 1
Flatulence, number of patients [2, 8]: 2
Weight, End of Higher Dose Treatment ([3]; study entry 58.3 kg): 59.0 kg
Weight, Change ([3]; study entry to end of higher dose treatment): 0.7 kg
Mean FEV1, End of Higher Dose Treatment ([4]; percentage of normal for gender, age and height, study entry 65.8%, one patient not included): 69.1%
Mean FVC, End of Higher Dose Treatment ([4]; percentage of normal for gender, age and height, study entry 80.2%, one patient not included): 85.1%
Mean FEV1, Change [4, 9]: 3.3%
Mean FVC, Change [4, 9]: 4.9%
Differences in PK parameters by gender ([5]; 15 CF patients): No differences
Cmin ([5]; Cycle 1 lower dose 4, 4, 8 mg/kg, Day 1, N = 15, mean): 1.6 µg/mL
Cmin ([5]; Cycle 1 lower dose 4, 4, 8 mg/kg, Day 14, N = 15, mean): 1.9 µg/mL
Cmin ([5]; Cycle 2 higher dose 10, 10, 20 mg/kg, Day 1, N = 15, mean): 5.0 µg/mL
Cmin ([5]; Cycle 2 higher dose 10, 10, 20 mg/kg, Day 14, N = 15, mean): 6.5 µg/mL
Cmax [5, 10]: 16 µg/mL
AUC(0-t) [5, 10]: 145 µg·h/mL
Cmax [5, 11]: 13 µg/mL
AUC(0-t) [5, 11]: 124 µg·h/mL
Cmax [5, 12]: 41 µg/mL
AUC(0-t) [5, 12]: 435 µg·h/mL
Cmax [5, 13]: 36 µg/mL
AUC(0-t) [5, 13]: 417 µg·h/mL
Serum CK levels during administration [6]: decreased significantly
